Data published in ChEMBL document CHEMBL3739309, “Fragment growing exploiting dynamic combinatorial chemistry of inhibitors of the aspartic protease endothiapepsin” (Medchemcomm, 2015).

Molecular target: T1, Endothiapepsin (Cryphonectria parasitica, UniProt P11838)
T1 sequence (P11838 whole entry): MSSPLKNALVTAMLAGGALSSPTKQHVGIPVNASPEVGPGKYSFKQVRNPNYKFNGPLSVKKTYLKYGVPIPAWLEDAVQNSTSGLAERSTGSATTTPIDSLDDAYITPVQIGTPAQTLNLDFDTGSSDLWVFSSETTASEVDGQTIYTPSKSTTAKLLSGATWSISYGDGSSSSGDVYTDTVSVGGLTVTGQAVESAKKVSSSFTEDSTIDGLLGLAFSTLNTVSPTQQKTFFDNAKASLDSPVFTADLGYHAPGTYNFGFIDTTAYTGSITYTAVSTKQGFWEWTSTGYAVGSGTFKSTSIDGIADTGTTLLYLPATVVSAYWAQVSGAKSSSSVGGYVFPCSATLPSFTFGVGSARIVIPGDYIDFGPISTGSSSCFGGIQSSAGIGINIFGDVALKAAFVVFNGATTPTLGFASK
Assay: Inhibition of Cryphonectria parasitica endothiapepsin using 2-aminobenzoyl-Thr-Ile-Nle-Phe(p-NO2)-Gln-Arg-NH2 as substrate assessed as hydrolysis of substrate into 2-aminobenzoyl-Thr-Ile-Nle and Phe(p-NO2)-GLn-Arg-NH2 by fluorescence-based spectrophotometric analysis

Row | IC50 | SMILES
1 | 85 µM | N[C@H](C(=O)N/N=C/C1CCCC1)c1ccc(C(F)(F)F)cc1 (mixture of isomers)
2 | 210 µM | N[C@H](C(=O)N/N=C/c1ccccc1)c1ccc(C(F)(F)F)cc1 (mixture of isomers)
